Experimental data published in PubChem BioAssay AID248 (DTP/NCI, 2004).
Where “and” joins values, the source holds several entries; their conditions need not be identical. Equal entries are not always repeated. Inconclusive results and toxic doses are left out. Cut-off read from the data, not from the text of the source: active = T/C of 150% or more; inactive = T/C below 125%.

System: L1210 leukemia ip in BDF1 mice, survival T/C
Test: NCI In Vivo Anticancer Drug Screen. Data for tumor model L1210 Leukemia (intraperitoneal) in B6D2F1 (BDF1) mice
Settings: endpoint: mean survival time, higher = longer survival
Summary of the method: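 Read-out is survival time, reported as the treated-group measurement over the vehicle-control measurement.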

[1] = dose: 50.0 mg/kg/injection, schedule: Q01DX009 (ip), vehicle: saline
[2] = dose: 100.0 mg/kg/injection, schedule: Q01DX001 (ip), vehicle: saline
[3] = dose: 200.0 mg/kg/injection, schedule: Q01DX001 (ip), vehicle: saline
[4] = dose: 200.0 mg/kg/injection, schedule: Q01DX009 (ip), vehicle: saline
[5] = dose: 100.0 mg/kg/injection, schedule: Q01DX001 (ip), vehicle: other
[6] = dose: 200.0 mg/kg/injection, schedule: Q01DX001 (ip), vehicle: other
[7] = dose: 400.0 mg/kg/injection, schedule: Q01DX001 (ip), vehicle: other
[8] = dose: 100.0 mg/kg/injection, schedule: Q04DX003 (ip), vehicle: saline with Tween-80
[9] = dose: 200.0 mg/kg/injection, schedule: Q04DX003 (ip), vehicle: saline with Tween-80
[10] = dose: 100.0 mg/kg/injection, schedule: Q04DX002 (ip), vehicle: Klucel (hydroxypropylcellulose) (HPC)
[11] = dose: 200.0 mg/kg/injection, schedule: Q04DX002 (ip), vehicle: Klucel (hydroxypropylcellulose) (HPC)
[12] = dose: 400.0 mg/kg/injection, schedule: Q04DX002 (ip), vehicle: Klucel (hydroxypropylcellulose) (HPC)
[13] = dose: 50.0 mg/kg/injection, schedule: Q04DX002 (ip), vehicle: Klucel (hydroxypropylcellulose) (HPC)
[14] = dose: 25.0 mg/kg/injection, schedule: Q01DX009 (ip), vehicle: saline

Measured: T/C

C=COC(=O)N(C)C
inactive: [1] 89 % of control | dose: 50.0 mg/kg/injection, schedule: Q04DX003 (ip), vehicle: acetone 98 % of control | [2] 96 % of control | dose: 100.0 mg/kg/injection, schedule: Q01DX009 (ip), vehicle: saline 94 % of control | dose: 100.0 mg/kg/injection, schedule: Q04DX003 (ip), vehicle: acetone 96 % of control | [3] 107 % of control | [4] 95 % of control | dose: 200.0 mg/kg/injection, schedule: Q04DX003 (ip), vehicle: acetone 95 % of control

CCOC(=O)NC(NC(=O)OCC)C(Cl)Cl
inactive: [2] 101 % of control | [3] 103 % of control | dose: 400.0 mg/kg/injection, schedule: Q01DX001 (ip), vehicle: saline 103 % of control

CCCCCCCCCCCC(=O)Nc1ccc(C(C)C)cc1
inactive: dose: 100.0 mg/kg/injection, schedule: Q01DX001 (ip), vehicle: saline with Tween-80 102 % of control | dose: 200.0 mg/kg/injection, schedule: Q01DX001 (ip), vehicle: saline with Tween-80 87 % of control | dose: 400.0 mg/kg/injection, schedule: Q01DX001 (ip), vehicle: saline with Tween-80 92 % of control

CCN(CC)CCCC(C)Nc1cc(/C=C/c2ccc(Cl)cc2)nc2ccc(N(C)C)cc12 (stereo not given)
inactive: dose: 3.12 mg/kg/injection, schedule: Q01DX009 (ip), vehicle: saline with Tween-80 95 % of control | dose: 6.25 mg/kg/injection, schedule: Q01DX009 (ip), vehicle: saline with Tween-80 97 % of control | dose: 12.5 mg/kg/injection, schedule: Q01DX009 (ip), vehicle: saline with Tween-80 95 % of control and 98 % of control

O=C(NC(Cc1ccc(O)cc1)C(=O)O)SCc1ccccc1 (stereo not given)
inactive: [5] 100 % of control | [6] 102 % of control | [7] 102 % of control

CC1=NOC(=O)C1C(C)(C)C1C(=O)ON=C1C (stereo not given)
inactive: [8] 101 % of control | [9] 95 % of control | dose: 400.0 mg/kg/injection, schedule: Q04DX003 (ip), vehicle: saline with Tween-80 101 % of control

COc1ccc(NC(=S)Nc2ccc(OC)cc2)cc1
inactive: dose: 100.0 mg/kg/injection, schedule: Q01DX009 (ip), vehicle: Klucel (hydroxypropylcellulose) (HPC) 101 % of control | dose: 100.0 mg/kg/injection, schedule: Q04DX003 (ip), vehicle: Klucel (hydroxypropylcellulose) (HPC) 103 % of control | dose: 200.0 mg/kg/injection, schedule: Q01DX009 (ip), vehicle: Klucel (hydroxypropylcellulose) (HPC) 105 % of control | dose: 200.0 mg/kg/injection, schedule: Q04DX003 (ip), vehicle: Klucel (hydroxypropylcellulose) (HPC) 103 % of control | dose: 400.0 mg/kg/injection, schedule: Q01DX009 (ip), vehicle: Klucel (hydroxypropylcellulose) (HPC) 92 % of control | dose: 400.0 mg/kg/injection, schedule: Q04DX003 (ip), vehicle: Klucel (hydroxypropylcellulose) (HPC) 94 % of control

CCOC(=O)c1cnn2c(=O)[nH]cnc12
inactive: [8] 98 % of control | [9] 109 % of control

CSCCC1NC(=O)C(/C(C)=N\NC(N)=O)=C1O (stereo not given)
inactive: dose: 50.0 mg/kg/injection, schedule: Q01DX001 (ip), vehicle: carboxymethylcellulose (CMC) 101 % of control | dose: 100.0 mg/kg/injection, schedule: Q01DX001 (ip), vehicle: carboxymethylcellulose (CMC) 103 % of control | dose: 200.0 mg/kg/injection, schedule: Q01DX001 (ip), vehicle: carboxymethylcellulose (CMC) 103 % of control | dose: 400.0 mg/kg/injection, schedule: Q01DX001 (ip), vehicle: carboxymethylcellulose (CMC) 101 % of control

CC(=O)Oc1ccc2c(c1)C=CC1C2CCC2(C)/C(=N/NC(N)=S)CCC12 (stereo not given)
inactive: [10] 100 % of control | [11] 90 % of control | [12] 116 % of control

OC12c3ccccc3C(O)(c3ccccc31)C1c3ccccc3C2c2ccccc21
inactive: [13] 101 % of control | [10] 93 % of control

CC1(C)N=C(N)N=C(N)N1c1ccc(CC(=O)Nc2cccc(S(=O)(=O)F)c2)cc1
inactive: dose: 6.25 mg/kg/injection, schedule: Q#A X018 (ip), vehicle: saline 105 % of control | dose: 12.5 mg/kg/injection, schedule: Q01DX009 (ip), vehicle: saline 103 % of control | dose: 12.5 mg/kg/injection, schedule: Q#A X018 (ip), vehicle: saline 111 % of control | [14] 111 % of control | [1] 117 % of control and 118 % of control | dose: 50.0 mg/kg/injection, schedule: Q#A X018 (ip), vehicle: saline 118 % of control | [2] 100 % of control | [3] 102 % of control

CCN(c1ccccc1)c1ccc([N+](=O)[O-])c2no[n+]([O-])c12
inactive: dose: 20.0 mg/kg/injection, schedule: Q04DX003 (ip), vehicle: saline with Tween-80 100 % of control | dose: 40.0 mg/kg/injection, schedule: Q04DX003 (ip), vehicle: saline with Tween-80 96 % of control

O=C(CC(=O)c1ccccc1)Nc1ccccc1
inactive: dose: 100.0 mg/kg/injection, schedule: Q01DX001 (ip), vehicle: gum acacia 103 % of control and 104 % of control | dose: 100.0 mg/kg/injection, schedule: Q01DX009 (ip), vehicle: gum acacia 95 % of control and 104 % of control | dose: 100.0 mg/kg/injection, schedule: Q04DX002 (ip), vehicle: gum acacia 100 % of control and 88 % of control | dose: 100.0 mg/kg/injection, schedule: Q04DX003 (ip), vehicle: gum acacia 96 % of control and 91 % of control | dose: 200.0 mg/kg/injection, schedule: Q01DX001 (ip), vehicle: gum acacia 96 % of control and 97 % of control | dose: 200.0 mg/kg/injection, schedule: Q01DX009 (ip), vehicle: gum acacia 92 % of control | dose: 200.0 mg/kg/injection, schedule: Q04DX002 (ip), vehicle: gum acacia 98 % of control and 90 % of control | dose: 200.0 mg/kg/injection, schedule: Q04DX003 (ip), vehicle: gum acacia 96 % of control and 88 % of control | dose: 400.0 mg/kg/injection, schedule: Q01DX001 (ip), vehicle: gum acacia 92 % of control and 93 % of control | dose: 400.0 mg/kg/injection, schedule: Q01DX009 (ip), vehicle: gum acacia 102 % of control | dose: 400.0 mg/kg/injection, schedule: Q04DX002 (ip), vehicle: gum acacia 94 % of control and 91 % of control | dose: 400.0 mg/kg/injection, schedule: Q04DX003 (ip), vehicle: gum acacia 93 % of control and 94 % of control

C1=C(c2ccccc2)N(C2CC2)C(c2ccccc2)=CN1Cc1ccccc1
inactive: [10] 95 % of control | [11] 118 % of control | [12] 103 % of control

CCCCCN(CCCCC)C(=S)[S-].CCCCCN(CCCCC)C(=S)[S-].[Zn]
inactive: dose: 100.0 mg/kg/injection, schedule: Q04DX003 (ip), vehicle: carboxymethylcellulose (CMC) 94 % of control | dose: 200.0 mg/kg/injection, schedule: Q04DX003 (ip), vehicle: carboxymethylcellulose (CMC) 100 % of control | dose: 400.0 mg/kg/injection, schedule: Q04DX003 (ip), vehicle: carboxymethylcellulose (CMC) 91 % of control

CCOC(=O)N/N=C/c1ccccc1
inactive: dose: 200.0 mg/kg/injection, schedule: Q01DX001 (ip), vehicle: Klucel (hydroxypropylcellulose) (HPC) 108 % of control | dose: 400.0 mg/kg/injection, schedule: Q01DX001 (ip), vehicle: Klucel (hydroxypropylcellulose) (HPC) 118 % of control

CCOP(N)(=O)SCC (stereo not given)
inactive: dose: 5.0 mg/kg/injection, schedule: Q01DX001 (ip), vehicle: saline 110 % of control

CCCCCCCCC(=O)N(C)OC
inactive: [8] 93 % of control | [9] 93 % of control

C(=NC12CC3CC(CC(C3)C1)C2)c1ccccc1
inactive: [14] 106 % of control | [1] 97 % of control | [4] 100 % of control | dose: 400.0 mg/kg/injection, schedule: Q01DX009 (ip), vehicle: saline 104 % of control

Cc1ccc(C(=O)C=Nc2ccccc2[N+](=O)[O-])cc1
inactive: dose: 12.5 mg/kg/injection, schedule: Q04DX002 (ip), vehicle: Klucel (hydroxypropylcellulose) (HPC) 105 % of control | dose: 25.0 mg/kg/injection, schedule: Q04DX002 (ip), vehicle: Klucel (hydroxypropylcellulose) (HPC) 108 % of control | [13] 123 % of control

NC(=O)c1nnn(Cc2ccccc2)c1C(N)=O
inactive: [10] 104 % of control | [11] 96 % of control | [12] 101 % of control

COc1ccc(C(=O)/C=C/c2ccc(C(C)C)cc2)cc1
inactive: dose: 75.0 mg/kg/injection, schedule: Q04DX003 (ip), vehicle: saline 94 % of control | dose: 150.0 mg/kg/injection, schedule: Q04DX003 (ip), vehicle: saline 100 % of control | dose: 300.0 mg/kg/injection, schedule: Q04DX003 (ip), vehicle: saline 89 % of control

Cc1cc(C)c2[nH]c(=O)cc(C)c2c1
inactive: [5] 97 % of control and 98 % of control | [6] 97 % of control and 95 % of control | [7] 108 % of control and 95 % of control

CCCOC(=O)CCl
inactive: [2] 113 % of control
